Key:
[1] = In vivo rat iv/po PK; settings: male, Sprague-Dawley, plasma, rat (SD); for bioavailability: rat, po
Experimental: Intravenous pharmacokinetics and plasma-brain level determination (IV PK PBL) VU6016235 […]
Dawley rats (n = 1; 342 gram body weights) via injection into a surgically-implanted jugular vein catheter. […] Blood samples were collected serially from a surgically implanted carotid artery catheter in each animal over multiple post-administration time points (0.033, 0.117, 0.25, 0.5, 1, 2, 4, 7, and 24 hours) into chilled, K2EDTA anticoagulant-fortified tubes and immediately placed on wet ice. […]
For PO PK studies, VU6016235 was formulated in 10% Tween 80 in water and administered orally as a single dose of 10 mg/kg to male Sprague Dawley rats (10 ml/kg, n=2) that were fasted overnight. […]
anticoagulant-fortified tubes and immediately placed on wet ice. The blood samples were then centrifuged (1700 rcf, 5 minutes, 4 °C) in order to obtain plasma samples, which were stored at -80 °C until analysis […]
Samples preparation for bioanalysis
Plasma samples from the in-life phase of the study were thawed at ambient temperature (benchtop), and then aliquots (20 µL per sample) were transferred to a 96-shallow-well (V-bottom) plate. Matrix-matched quality control (QC) samples and a standard curve of […] (1 mg/mL DMSO stock solution) were prepared in blank rat plasma (K2EDTA-treated) or blank brain homogenate via serial dilution and transferred (20 µL each) to the plate along with multiple blank plasma and brain homogenate samples. Acetonitrile (120 µL) containing IS (10 nM carbamazepine) was added to each well of the plate to precipitate protein. The plate was then centrifuged (4000 rcf, 5 minutes, ambient temperature), and resulting supernatants (60 µL each) were transferred to a new 96-shallow-well (V-bottom) plate containing an equal volume (60 µL per well) of water (Milli-Q purified). […]
The plasma standard curve and QCs were used for compounds quantitation in brain.
(§1) Binding in plasma from rat and human.
(§2) Determination of compounds’ fraction unbound (f u) in plasma from rat and human was conducted in vitro via equilibrium dialysis using HTDialysis membrane plates. Dialysis membranes (four paired strips per HTD assay) were hydrated as described by the manufacturer and inserted into the HTD plate, which was assembled and prepared for sample addition by the dispensing of blank buffer (DPBS, 100 µL/well) into the ‘top half’ of each membrane-split well. Each compound was diluted into plasma from each species (5 µM final concentration), which was aliquoted in triplicate to the ‘bottom half’ of the prepared HTD plate wells. The HTD plate was sealed and incubated for 6 hours at 37 °C. Following incubation, each well (both top and bottom halves) were transferred (20 µL) to the corresponding wells of a 96-shallow-well (V-bottom) plate. The daughter plates were then matrix-matched (buffer side wells received equal volume of plasma, and plasma side wells received equal volume of buffer), and extraction solution (120 µL; acetonitrile containing 50 nM carbamazepine as IS) was added to all wells of both daughter plates to precipitate protein and extract test article. The plates were then sealed and centrifuged (3500 rcf) for 10 minutes at ambient temperature. Supernatant (60 µL) from each well of the daughter plates was then transferred to the corresponding wells of new daughter plates (96-shallow-well, V bottom) containing water (Milli-Q, 60 µL/well), and the plates were sealed in preparation for LC-MS/MS analysis (see below). fu was calculated as (analyte to IS MS peak area ratio from Trans-buffer side) / (analyte to IS MS peak area ratio from Cis-plasma side). Mean values for each species were calculated from 3 replicates.

[2] = Binding in plasma from human (equilibrium dialysis); format: in vitro ADME; settings: human, plasma, fraction unbound; equilibrium dialysis; read-out: human fu,plasma
Experimental: as §1, §2

[3] = test system: Transporter, GABA; assay: Lead Profiling Screen – Eurofins Panlabs; format: binding, rat
[4] = molecular target: Nicotinic Acetylcholine α1, Bungarotoxin (Homo sapiens, UniProt P02708+P07510+Q07001); assay: Lead Profiling Screen – Eurofins Panlabs; format: binding; settings: read-out: % inh at 10 μM
[5] = molecular target: T1, Adenosine A1 (Homo sapiens, UniProt P30542); assay: Lead Profiling Screen – Eurofins Panlabs; format: binding; settings: read-out: % inh at 10 μM
T1 construct: Eurofins Panlabs
T1 sequence (P30542 whole entry): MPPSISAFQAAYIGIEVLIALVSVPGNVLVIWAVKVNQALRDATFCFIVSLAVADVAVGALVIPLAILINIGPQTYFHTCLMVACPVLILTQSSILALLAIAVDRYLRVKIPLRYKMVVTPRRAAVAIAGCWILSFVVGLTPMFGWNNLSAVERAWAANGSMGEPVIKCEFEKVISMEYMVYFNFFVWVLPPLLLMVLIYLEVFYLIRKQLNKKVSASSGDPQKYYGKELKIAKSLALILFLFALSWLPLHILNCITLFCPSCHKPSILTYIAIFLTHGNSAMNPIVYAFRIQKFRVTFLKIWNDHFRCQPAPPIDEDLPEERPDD

Chain of Nicotinic Acetylcholine α1, Bungarotoxin (P02708 21-457): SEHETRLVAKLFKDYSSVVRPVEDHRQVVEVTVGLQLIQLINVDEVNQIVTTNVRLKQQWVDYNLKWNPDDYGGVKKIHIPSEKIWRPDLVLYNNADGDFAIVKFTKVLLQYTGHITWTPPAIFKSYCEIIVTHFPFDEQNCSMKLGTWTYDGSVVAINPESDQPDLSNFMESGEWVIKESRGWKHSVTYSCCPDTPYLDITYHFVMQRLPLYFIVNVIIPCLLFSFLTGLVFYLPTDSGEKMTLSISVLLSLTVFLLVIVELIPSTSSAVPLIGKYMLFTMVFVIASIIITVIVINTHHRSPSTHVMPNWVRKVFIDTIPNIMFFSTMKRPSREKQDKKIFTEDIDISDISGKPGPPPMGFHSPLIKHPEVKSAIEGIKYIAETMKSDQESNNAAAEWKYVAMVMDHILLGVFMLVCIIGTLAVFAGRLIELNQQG
Chain of Nicotinic Acetylcholine α1, Bungarotoxin (Q07001 22-517): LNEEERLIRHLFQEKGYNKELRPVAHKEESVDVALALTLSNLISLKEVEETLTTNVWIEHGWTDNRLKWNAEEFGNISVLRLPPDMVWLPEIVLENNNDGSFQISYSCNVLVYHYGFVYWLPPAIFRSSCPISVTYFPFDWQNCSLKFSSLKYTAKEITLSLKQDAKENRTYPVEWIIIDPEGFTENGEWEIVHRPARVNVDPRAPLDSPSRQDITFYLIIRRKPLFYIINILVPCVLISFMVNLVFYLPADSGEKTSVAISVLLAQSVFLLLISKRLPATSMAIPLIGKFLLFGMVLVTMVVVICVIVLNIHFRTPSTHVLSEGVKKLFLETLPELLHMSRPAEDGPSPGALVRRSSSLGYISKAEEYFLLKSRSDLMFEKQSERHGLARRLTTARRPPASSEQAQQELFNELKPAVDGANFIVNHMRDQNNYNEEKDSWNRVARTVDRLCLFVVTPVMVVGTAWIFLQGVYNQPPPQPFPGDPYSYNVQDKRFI
Chain of Nicotinic Acetylcholine α1, Bungarotoxin (P07510 23-517): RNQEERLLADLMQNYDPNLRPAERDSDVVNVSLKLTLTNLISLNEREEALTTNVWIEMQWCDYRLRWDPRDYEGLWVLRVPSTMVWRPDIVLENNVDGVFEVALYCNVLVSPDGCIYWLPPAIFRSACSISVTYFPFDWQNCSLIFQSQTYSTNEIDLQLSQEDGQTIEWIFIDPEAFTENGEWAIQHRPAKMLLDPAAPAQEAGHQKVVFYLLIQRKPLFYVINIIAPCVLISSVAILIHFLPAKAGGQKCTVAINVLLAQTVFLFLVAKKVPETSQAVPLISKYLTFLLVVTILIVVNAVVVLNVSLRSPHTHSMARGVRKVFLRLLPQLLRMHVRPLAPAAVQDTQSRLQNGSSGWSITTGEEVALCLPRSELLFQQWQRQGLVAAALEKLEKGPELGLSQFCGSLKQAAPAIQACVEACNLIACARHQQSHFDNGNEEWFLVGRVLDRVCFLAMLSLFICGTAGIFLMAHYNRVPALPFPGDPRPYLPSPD
Chain of Nicotinic Acetylcholine α1, Bungarotoxin (P11230 24-501, further chain): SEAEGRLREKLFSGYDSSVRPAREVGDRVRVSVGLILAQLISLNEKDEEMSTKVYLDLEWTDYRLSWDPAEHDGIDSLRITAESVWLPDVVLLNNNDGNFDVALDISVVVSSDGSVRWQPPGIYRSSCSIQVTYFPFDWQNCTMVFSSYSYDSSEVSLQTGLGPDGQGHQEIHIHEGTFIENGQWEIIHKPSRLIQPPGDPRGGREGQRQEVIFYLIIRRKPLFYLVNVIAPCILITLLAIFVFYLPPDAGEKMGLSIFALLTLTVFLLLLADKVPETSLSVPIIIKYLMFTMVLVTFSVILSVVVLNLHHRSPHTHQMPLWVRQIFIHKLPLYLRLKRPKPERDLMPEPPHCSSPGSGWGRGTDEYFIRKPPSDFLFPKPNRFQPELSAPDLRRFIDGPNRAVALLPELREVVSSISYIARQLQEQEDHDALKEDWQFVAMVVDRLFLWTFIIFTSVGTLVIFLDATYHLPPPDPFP

Cc1nc(C)c2c(n1)sc1c(NCc3ccc(C(C)(C)O)cc3)nccc12 [22g]
MRT ([1]; iv 1.0 mg/kg): 4.3 h
half-life ([1]; iv 1.0 mg/kg): 3.4 h
clearance ([1]; iv 1.0 mg/kg, read-out: CLp): 4.9 mL/min/kg
Vd ([1]; iv 1.0 mg/kg, read-out: Vss): 1.3 L/kg
AUC(0-inf) ([1]; po 3.0 mg/kg): 8410 ng·h/mL
Cmax ([1]; po 3.0 mg/kg): 657 ng/mL
Tmax ([1]; po 3.0 mg/kg): 3 h
AUC(0-inf) ([1]; po 30.0 mg/kg): 59200 ng·h/mL
Cmax ([1]; po 30.0 mg/kg): 4460 ng/mL
Tmax ([1]; po 30.0 mg/kg): 5 h
bioavailability ([1]; 3 mg/kg, po 3.0 mg/kg): ≥ 100%
bioavailability ([1]; 30 mg/kg, po 30.0 mg/kg): 84%
fraction unbound at 6 h, 5 µM [2]: 0.014
% inh at 10 μM [3]: 0%
inhibition at 10 µM [4]: -8%
inhibition at 10 µM [5]: 6%
